The results in this text go back to publication PMC3610872, “Full and Partial Agonists of Thromboxane Prostanoid Receptor Unveil Fine Tuning of Receptor Superactive Conformation and G Protein Activation” (PLoS ONE, 2013).

Where a chain is given by its changes, count along the chain named.

Assay [1] concerns the target T1, E129V mutant human TP receptor (Homo sapiens, UniProt P21731, E129V).
T1 construct: expressed in transfected cells; host or cells: HEK293
T1 sequence (P21731 1-343 E129V): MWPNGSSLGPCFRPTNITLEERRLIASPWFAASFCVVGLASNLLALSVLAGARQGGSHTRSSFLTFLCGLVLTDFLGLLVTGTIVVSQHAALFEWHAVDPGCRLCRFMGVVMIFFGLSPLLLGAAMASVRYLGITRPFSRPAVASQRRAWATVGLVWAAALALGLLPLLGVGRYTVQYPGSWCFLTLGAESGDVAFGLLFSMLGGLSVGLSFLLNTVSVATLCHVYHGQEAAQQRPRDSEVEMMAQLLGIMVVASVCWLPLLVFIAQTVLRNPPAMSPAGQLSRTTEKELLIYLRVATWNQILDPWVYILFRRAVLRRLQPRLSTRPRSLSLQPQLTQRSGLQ
Description: [3H]SQ29,548 radioligand binding (mixed-type and heterologous competition), E129V mutant. Particulars: HEK293 cells; for Ki: E129V, competition vs 1 nM [3H]SQ29,548, 25°C 30 min, value ±%CV; for Affinity ratio (Ki WT over Ki E129V): WT vs E129V. On the procedure: (§1) Receptor expression and functional activity were monitored 48 hours after transfection. […] Heterologous competition studies involved concentrations of the indicated unlabeled ligands extending from 0.1 nM to 30 µM. After 30 min incubation at 25 °C, the reaction was stopped by aspiration of the medium, cells were washed with ice-cold PBS containing 0.2% (w/v) BSA and lysed in 0.5 N NaOH. Radioactivity was measured by liquid scintillation counting. Binding data were analyzed as described in Data and Statistical Analysis. Quantification of the total labeled inositol phosphates (IP) accumulation was performed using a conventional gravity flow column chromatography, as described previously, [19]. Briefly, the day before the assay, cells were labeled with 0,5 µCi of [myo-2-^3H]inositol (17 Ci/mmol) for 18–20 hours in serum-free, inositol-free DMEM containing 20 mM HEPES buffer, pH 7.4, and 0.5% (w/v) Albumax I. The day of the assay, media was replaced with serum-free, inositol-free DMEM containing 25 mM LiCl and cells stimulated for 30 min with the indicated agonists. After removal of the medium, cells were lysed with 10 mM formic acid and lysates were applied onto an anion exchange AG 1X-8 column, formate form, 200–400 mesh. The total IP fraction was then eluted with 2 M ammonium formate/formic acid buffer at pH 5 and radioactivity determined by liquid scintillation counting. Rescue experiments were performed essentially as above, except for a 18 hours incubation step with 1 µΜof […] followed by its removal by washing three times with ice-cold PBS containing 1 mM MgCl2 and 0.1 mM CaCl2 before starting the experiment.
(§2) All average results are presented as mean±S.E. When indicated, ANOVA followed by post-hoc test for multiple comparisons was performed. Data from radioligand binding were evaluated by a nonlinear, least-squares curve-fitting procedure using GraphPad Prism version 4, implemented with the n-ligand m-binding site model, as described in the LIGAND computer program. Concentration-response curves were evaluated using Prism 4, which use the four parameters logistic model as described in the ALLFIT program. Parameter errors are all expressed in percentage coefficient of variation (%CV) and calculated by simultaneous analysis of at least two different independent experiments performed in duplicate or triplicate. Parameter comparison has been performed on the base of the F test for extra sum of square principle. All curves shown are computer generated.
(§3) Thus, transfection conditions were adjusted to secure equivalent levels of receptor expression for WT and mutants as previously described, [17], [19]. […] All the experiments were conducted within this range of receptor expression, if not specified differently.

The target of assay [2] is T2, WT human TP receptor (Homo sapiens, UniProt P21731).
T2 construct: expressed in transfected cells; host or cells: HEK293
T2 sequence (P21731 1-343): T1 sequence (P21731 1-343 E129V) with V129E
Description: BRET2 measurement of Gq protein activation, WT receptor. Format: cell-based. Particulars: HEK293 cells, value ±%CV; for EC50: Gαq-Rluc8/GFP10-Gγ2/Gβ1, 2 min ligand.
Excerpt: HEK 293 cells were co-transfected with vectors expressing the GFP^10-Gγ2, Gβ1, Gαq-Rluc8 and WT or E129V mutant of TP receptor to investigate direct G protein activation with an intramolecular bioluminescent resonance energy transfer (BRET^2) strategy. To avoid possible variations in the BRET signaling resulting from fluctuation in the relative expression levels of the energy donor and acceptor, we designed transfection conditions to maintain constant GFP^10 and Rluc8 expression and their ratios in each experimental set. Total fluorescence and luminescence were directly determined in an aliquot of the transfected cells using an Infinite F500 microplate reader (Tecan, Milan, Italy) as previously described. […] 48 hours after transfection, cells were washed once with PBS, detached, and resuspended in PBS+0.1% (w/v) glucose at room temperature. Cells were then distributed (80 µg of proteins per well) into a 96-well microplate (Wallac, Perkin Elmer, Monza, Italy) and incubated in the presence or absence of increasing concentrations of ligands for 2 min before the addition of the luciferase substrate Coelenterazine 400a (5 µM; Biotium, Hayward, CA). BRET signal between Rluc8 and GFP^10 was measured immediately after the addition of the Rluc substrate in the microplate reader. The BRET signal was calculated as the ratio of the light emitted by GFP^10 (510–540 nm) over the light emitted by Rluc8 (370–450 nm). The changes in BRET induced by the ligands were expressed as Òagonist-induced BRETÓ, obtained by subtracting the BRET signal detected in the presence of PBS by the BRET signal detected in the presence of the specific ligand.
as §2
This recorded real time conformational changes between the α and the βγ subunits within the Gq protein, where a decrease of the BRET signal provoked by agonist-induced receptor activation is indicative of a conformational reorganization leading the Gα-Gβγ interface to open, reflects the initial event of Gq protein activation, [23] (Figure 6A).
In general terms: BRET reads energy transfer from a luciferase to a nearby fluorophore.

Assay [3] deals with T2, WT human TP receptor. Description: [3H]SQ29,548 radioligand binding (mixed-type and heterologous competition), WT receptor. The conditions noted are these: HEK293 cells, competition vs 1 nM [3H]SQ29,548, 25°C 30 min, value ±%CV. Here is the method: as §1, §2, §3
The target of assay [4] is T1, E129V mutant human TP receptor. Briefly: BRET2 measurement of Gq protein activation, E129V mutant. It counts as cell-based. The conditions noted are these: HEK293 cells; for EC50: E129V, Gαq-Rluc8/GFP10-Gγ2/Gβ1, 2 min ligand, value ±%CV; for Activity ratio (EC50 WT over EC50 E129V), BRET: WT vs E129V. On the procedure: as §2
Assay [5] shares this target. Briefly: Total inositol phosphate (IP) accumulation, E129V mutant. Format: cell-based. The conditions noted are these: HEK293 cells; for EC50 / Emax, total IP / Pharmacodynamic behaviour in total IP assay: E129V; for Activity ratio (EC50 WT over EC50 E129V), total IP: WT vs E129V; for Pharmacodynamic behaviour in total IP assay: SQ29,548 in absence or presence of Gαq overexpression. Here is the method: as §1, §2

For assay [6], the target named is T2, WT human TP receptor. Description: Total inositol phosphate (IP) accumulation, WT receptor. The conditions noted are these: HEK293 cells; for Pharmacodynamic behaviour in total IP assay: SQ29,548 in absence or presence of Gαq overexpression. Format: cell-based. On the procedure:
as §1, §2

Assay [7] concerns the target T3, double mutant E129V/E240V of human TP receptor (Homo sapiens, UniProt P21731, E129V/E240V).
T3 construct: expressed in transfected cells; host or cells: HEK293
T3 sequence (P21731 1-343 E129V/E240V): T1 sequence (P21731 1-343 E129V) with E240V
Briefly: Total inositol phosphate (IP) accumulation, E129V/E240V double mutant, rescue with SQ29,548. It counts as cell-based. The conditions noted are these: cells exposed to 1 µM for 18 hours, removed by washing, then 1 µM U46619 for 30 min. On the procedure: Receptor expression and functional activity were monitored 48 hours after transfection. […] Heterologous competition studies involved concentrations of the indicated unlabeled ligands extending from 0.1 nM to 30 µM. After 30 min incubation at 25 °C, the reaction was stopped by aspiration of the medium, cells were washed with ice-cold PBS containing 0.2% (w/v) BSA and lysed in 0.5 N NaOH. Radioactivity was measured by liquid scintillation counting. Binding data were analyzed as described in Data and Statistical Analysis. Quantification of the total labeled inositol phosphates (IP) accumulation was performed using a conventional gravity flow column chromatography, as described previously, [19]. […] The total IP fraction was then eluted with 2 M ammonium formate/formic acid buffer at pH 5 and radioactivity determined by liquid scintillation counting. […]
All average results are presented as mean±S.E. When indicated, ANOVA followed by post-hoc test for multiple comparisons was performed. Data from radioligand binding were evaluated by a nonlinear, least-squares curve-fitting procedure using GraphPad Prism version 4, implemented with the n-ligand m-binding site model, as described in the LIGAND computer program. Concentration-response curves were evaluated using Prism 4, which use the four parameters logistic model as described in the ALLFIT program. […]

[8] abbreviates: 30 min stimulation, no Gαq overexpression, value ±%CV.
[9] abbreviates: Gαq overexpression (5x), 30 min.

As usually defined, the Ki is a measure of affinity in units of concentration, obtained from inhibition or displacement. As usually defined, the EC50 is the midpoint of the concentration-response curve. With `CCCCC[C@H](O)/C=C/[C@@H]1[C@H](C/C=C\CCCC(=O)O)[C@@H](O)C[C@H]1O` [8-isoPGF2α, 8-iso Prostaglandin F2α], the Ki in assay [1] turned out to be 2908 ± 11 nM; in assay [3] it was 12930 ± 19 nM. Also, the “Affinity ratio (Ki WT over Ki E129V)” value in assay [1] was found to be 4.4. The EC50 in assay [2] was found to be 3940 ± 48 nM; in assay [4] it was 404 ± 31 nM; in assay [5] (30 min stimulation, value ±%CV) it was 493 ± 53 nM; in assay [6] (30 min stimulation, value ±%CV), 4000 ± 68 nM. Moreover, the “Emax, agonist-induced BRET” value in assay [2] is reported as −0.05±9. Besides, in assay [4], the “Activity ratio (EC50 WT over EC50 E129V), BRET” value is on record as 9.7. In addition, the “Emax, total IP” value in assay [5] (30 min stimulation, value ±%CV) is 15287±7 dpm/wel; in assay [6] (setting [8]), 6744±42 dpm/well. The “Activity ratio (EC50 WT over EC50 E129V), total IP” value in assay [5] turned out to be 8.1.

Turning to `CCCCC[C@H](O)/C=C/[C@H]1[C@H](O)CC(=O)[C@H]1C/C=C\CCCC(=O)O` [8-isoPGE2, 8-iso Prostaglandin E2], the Ki stood at 547.6 ± 2 nM in assay [1] and 2916 ± 15 nM in assay [3]. Moreover, the “Affinity ratio (Ki WT over Ki E129V)” value in assay [1] was found to be 5.3. The EC50 in assay [2] was determined as 1980 ± 72 nM; in assay [4], 485 ± 46 nM; in assay [5] (30 min stimulation, value ±%CV), 95.9 ± 60 nM; in assay [6] (30 min stimulation, value ±%CV), 1160 ± 72 nM. The “Emax, agonist-induced BRET” value in assay [2] is listed as −0.02±42. Besides, the “Activity ratio (EC50 WT over EC50 E129V), BRET” value in assay [4] is listed as 4.1. Also, the “Emax, total IP” value in assay [5] (30 min stimulation, value ±%CV) was 12201±5 dpm/wel; in assay [6] (setting [8]) it was 5087±21 dpm/well. Besides, the “Activity ratio (EC50 WT over EC50 E129V), total IP” value in assay [5] was found to be 12.0.

Consider `O=C(O)CCCC=CCC1C2CCC(O2)C1C=CC(O)COc1ccc(I)cc1` (stereo not drawn) [I-BOP, [1S-[1α,2α(Z),3β(1E,3S*),4α]]-7-[3-[3-hydroxy-4-(4-iodophenoxy)-1-butenyl]-7-oxabicyclo[2.2.1]hept-2-yl]-5-heptenoic acid], for which the results for the inhibitory constant (Ki) in assay [1] and in assay [3] were 3.9 nM and 24.3 ± 18 nM, respectively. For the same compound, the concentration for a half-maximal effect (EC50) is 13 ± 27 nM in assay [2]; 3.96 nM in assay [4]; 2.99 nM in assay [5] (30 min stimulation, value ±%CV); 25.1 ± 65 nM in assay [6] (30 min stimulation, value ±%CV). Also, the “Emax, agonist-induced BRET” value in assay [2] is recorded as −0.07±5. Also, the “Emax, total IP” value in assay [5] (30 min stimulation, value ±%CV) is recorded as 17156±8 dpm/wel; in assay [6] (setting [8]) it was 13099±14 dpm/well.

With `CCCCC[C@H](O)/C=C/C1CC2CC(C1C/C=C\CCCC(=O)O)C2(C)C` (stereo partly drawn) [PTA2, 9α,11α-(dimethyl)methylene-15S-hydroxy-11α-deoxy-11α-methylene-thromba-5Z,13E-dien-1-oic acid], the Ki in assay [1] is 4840 nM; in assay [3], 12100 nM. Also, the results for the EC50 in assay [5] (setting [9]) and in assay [6] (setting [9]) were 747 nM and 1450 nM, respectively. Besides, the “Emax, total IP” value in assay [5] (setting [9]) is on record as 26642 dpm/well; in assay [5] (no Gαq overexpression, 30 min), 19423 dpm/well; in assay [6] (setting [8]), 5856 dpm/well; in assay [6] (setting [9]) it was 19670 dpm/well. The “Pharmacodynamic behaviour in total IP assay” value is reported as “much stronger agonist” in assay [5] and “very weak partial agonist” in assay [6].

For `O=C(O)CCC/C=C\C[C@@H]1[C@H](CNNC(=O)Nc2ccccc2)[C@H]2CC[C@@H]1O2` [SQ29,548, [1S-[1α,2α(Z),3α,4α]]-7-[3-[[2-[(phenylamino)carbonyl]-hydrazino]methyl]-7-oxabicyclo[2.2.1]hept-2-yl]-5-heptenoic acid], the “Functional rescue of double mutant receptor activity” value in assay [7] was “able to rescue double mutant receptor functional activity, albeit not completely”. Moreover, the “Pharmacodynamic behaviour in total IP assay” value in assay [5] and in assay [6] was “pure antagonist” each time.
